{
  "source": "patent US7202280B2",
  "about": "“Methods for the treatment and prevention of pancreatitis and for induction of liver regeneration” (priority 2002, dated 2007)",
  "tested_on": "SSAT transgenic rats (UKUR30)",
  "assay": "Pancreatic zinc, SSAT activity and polyamine levels in zinc induced pancreatitis treated with MeSpd",
  "assay_type": "in vivo",
  "settings": "single animals",
  "experimental": "Transgenic UKUR30 female rats (weighting about 200 g) were used for the experiments. Pancreatitis was initiated with zinc 10 mg/kg treatment. Experiments were separated in five different parts (Exp. 1–5). Animals treated with α-MeSPD received 50 mg/kg i.p at the indicated time point(s). The pooled data from all of the experiment is shown in tables 4 A/B/C/D. First histological signs of pancreatic failure were evident within 6 h after the zinc. Pancreatic failure steadily increases until 24 hours when the first animals died. Within 48 hours mortality was almost 70% in control zinc treated rats. […].\nTables 4 A/B/C/D present the natural course of zinc induced pancreatitis. Histological scoring along with plasma amylase activity is shown as a measure of severity of pancreatitis. Tissue zinc and polyamine levels and SSAT activity were determined to verify the response of each animal to the treatment. No other data than the number of death animals is shown from deceased animals. Transgenic UKUR30 female rats weighting about 200 grams were used for the experiment. Zinc was injected i.p. 10 mg/kg to initiate acute pancreatitis. Animals treated with MeSpd received one 50 mg/kg dosage i.p. at the indicated time point(s). At indicated time points live animals were sacrificed and pancreas was subjected to further analysis. […] Values for polyamines are expressed as pmoles/mg/wet weight. SSAT pmoles/10 min/mg wet weight.",
  "key": {"[1]": {"settings": "Zn 24 h, MeSpd 50 mg/kg i.p. at 3 h/8 h"}, "[2]": {"settings": "Zn 24 h, MeSpd 50 mg/kg i.p. at 6 h/12 h"}, "[3]": {"settings": "Zn 24 h, MeSpd 50 mg/kg i.p. at 12 h"}, "[4]": {"settings": "Zn 48 h, MeSpd 50 mg/kg i.p. at 3 h/8 h"}, "[5]": {"settings": "Zn 48 h, MeSpd 50 mg/kg i.p. at 4 h/24 h"}, "[6]": {"settings": "Zn 48 h, MeSpd 50 mg/kg i.p. at 12 h/24 h"}},
  "note": "“And” between values parts separate entries of the source, which are not always exact repeats. Equal values may be shown once.",
  "data": [
    {"smiles": "CC(N)CCNCCCCN", "note": "(stereo not drawn) [α-methylspermidine, 1-methylspermidine]", "values": [
      {"measurement": "MeSpd (pancreas)", "setting": "[1]", "result": "1943 pmoles/mg/wet weight and 1425 pmoles/mg/wet weight and 907 pmoles/mg/wet weight and 0 pmoles/mg/wet weight"},
      {"measurement": "N^1AcSpd (pancreas)", "setting": "[1]", "result": "54 pmoles/mg/wet weight and 58 pmoles/mg/wet weight and 31 pmoles/mg/wet weight and 0 pmoles/mg/wet weight"},
      {"measurement": "PU (pancreas)", "setting": "[1]", "result": "3231 pmoles/mg/wet weight and 2820 pmoles/mg/wet weight and 2269 pmoles/mg/wet weight and 2159 pmoles/mg/wet weight"},
      {"measurement": "SPD (pancreas)", "setting": "[1]", "result": "1165 pmoles/mg/wet weight and 265 pmoles/mg/wet weight and 119 pmoles/mg/wet weight and 3405 pmoles/mg/wet weight"},
      {"measurement": "SPM (pancreas)", "setting": "[1]", "result": "299 pmoles/mg/wet weight and 128 pmoles/mg/wet weight and 69 pmoles/mg/wet weight and 441 pmoles/mg/wet weight"},
      {"measurement": "SSAT (pancreas)", "setting": "[1]", "result": "50 pmoles/10 min/mg wet weight and 91 pmoles/10 min/mg wet weight and 100 pmoles/10 min/mg wet weight and 18 pmoles/10 min/mg wet weight"},
      {"measurement": "MeSpd (pancreas)", "setting": "[2]", "result": "2268 pmoles/mg/wet weight and 3242 pmoles/mg/wet weight and 3098 pmoles/mg/wet weight and 745 pmoles/mg/wet weight and 798 pmoles/mg/wet weight and 954 pmoles/mg/wet weight and 834 pmoles/mg/wet weight and 1993 pmoles/mg/wet weight and 728 pmoles/mg/wet weight"},
      {"measurement": "N^1AcSpd (pancreas)", "setting": "[2]", "result": "113 pmoles/mg/wet weight and 45 pmoles/mg/wet weight and 43 pmoles/mg/wet weight and 66 pmoles/mg/wet weight and 71 pmoles/mg/wet weight and 98 pmoles/mg/wet weight and 134 pmoles/mg/wet weight and 20 pmoles/mg/wet weight and 59 pmoles/mg/wet weight"},
      {"measurement": "PU (pancreas)", "setting": "[2]", "result": "6768 pmoles/mg/wet weight and 6932 pmoles/mg/wet weight and 4915 pmoles/mg/wet weight and 2335 pmoles/mg/wet weight and 1932 pmoles/mg/wet weight and 2401 pmoles/mg/wet weight and 1911 pmoles/mg/wet weight and 3790 pmoles/mg/wet weight and 1935 pmoles/mg/wet weight"},
      {"measurement": "SPD (pancreas)", "setting": "[2]", "result": "478 pmoles/mg/wet weight and 1114 pmoles/mg/wet weight and 1297 pmoles/mg/wet weight and 108 pmoles/mg/wet weight and 96 pmoles/mg/wet weight and 105 pmoles/mg/wet weight and 84 pmoles/mg/wet weight and 1096 pmoles/mg/wet weight and 100 pmoles/mg/wet weight"},
      {"measurement": "SPM (pancreas)", "setting": "[2]", "result": "213 pmoles/mg/wet weight and 431 pmoles/mg/wet weight and 408 pmoles/mg/wet weight and 41 pmoles/mg/wet weight and 54 pmoles/mg/wet weight (2×) and 50 pmoles/mg/wet weight and 276 pmoles/mg/wet weight and 46 pmoles/mg/wet weight"},
      {"measurement": "SSAT (pancreas)", "setting": "[2]", "result": "1403 pmoles/10 min/mg wet weight and 37 pmoles/10 min/mg wet weight and 40 pmoles/10 min/mg wet weight and 10372 pmoles/10 min/mg wet weight and 3866 pmoles/10 min/mg wet weight and 5823 pmoles/10 min/mg wet weight and 6216 pmoles/10 min/mg wet weight and 1024 pmoles/10 min/mg wet weight and 5748 pmoles/10 min/mg wet weight"},
      {"measurement": "MeSpd (pancreas)", "setting": "[3]", "result": "1113 pmoles/mg/wet weight and 371 pmoles/mg/wet weight and 333 pmoles/mg/wet weight and 334 pmoles/mg/wet weight"},
      {"measurement": "N^1AcSpd (pancreas)", "setting": "[3]", "result": "16 pmoles/mg/wet weight and 57 pmoles/mg/wet weight and 65 pmoles/mg/wet weight and 42 pmoles/mg/wet weight"},
      {"measurement": "PU (pancreas)", "setting": "[3]", "result": "5328 pmoles/mg/wet weight and 3361 pmoles/mg/wet weight and 2782 pmoles/mg/wet weight and 3116 pmoles/mg/wet weight"},
      {"measurement": "SPD (pancreas)", "setting": "[3]", "result": "1360 pmoles/mg/wet weight and 124 pmoles/mg/wet weight and 153 pmoles/mg/wet weight and 126 pmoles/mg/wet weight"},
      {"measurement": "SPM (pancreas)", "setting": "[3]", "result": "479 pmoles/mg/wet weight and 47 pmoles/mg/wet weight and 61 pmoles/mg/wet weight and 45 pmoles/mg/wet weight"},
      {"measurement": "SSAT (pancreas)", "setting": "[3]", "result": "29 pmoles/10 min/mg wet weight and 6855 pmoles/10 min/mg wet weight and 4852 pmoles/10 min/mg wet weight and 6866 pmoles/10 min/mg wet weight"},
      {"measurement": "MeSpd (pancreas)", "setting": "[4]", "result": "646 pmoles/mg/wet weight and 1043 pmoles/mg/wet weight and 768 pmoles/mg/wet weight"},
      {"measurement": "N^1AcSpd (pancreas)", "setting": "[4]", "result": "43 pmoles/mg/wet weight and 21 pmoles/mg/wet weight and 29 pmoles/mg/wet weight"},
      {"measurement": "PU (pancreas)", "setting": "[4]", "result": "1538 pmoles/mg/wet weight and 1268 pmoles/mg/wet weight and 649 pmoles/mg/wet weight"},
      {"measurement": "SPD (pancreas)", "setting": "[4]", "result": "367 pmoles/mg/wet weight and 313 pmoles/mg/wet weight and 148 pmoles/mg/wet weight"},
      {"measurement": "SPM (pancreas)", "setting": "[4]", "result": "119 pmoles/mg/wet weight and 90 pmoles/mg/wet weight and 51 pmoles/mg/wet weight"},
      {"measurement": "SSAT (pancreas)", "setting": "[4]", "result": "92 pmoles/10 min/mg wet weight and 82 pmoles/10 min/mg wet weight and 90 pmoles/10 min/mg wet weight"},
      {"measurement": "MeSpd (pancreas)", "setting": "[5]", "result": "1066 pmoles/mg/wet weight and 2249 pmoles/mg/wet weight and 1415 pmoles/mg/wet weight and 1041 pmoles/mg/wet weight and 1493 pmoles/mg/wet weight"},
      {"measurement": "N^1AcSpd (pancreas)", "setting": "[5]", "result": 0, "unit": "pmoles/mg/wet weight"},
      {"measurement": "PU (pancreas)", "setting": "[5]", "result": "1522 pmoles/mg/wet weight and 2416 pmoles/mg/wet weight and 1960 pmoles/mg/wet weight and 1744 pmoles/mg/wet weight and 1896 pmoles/mg/wet weight"},
      {"measurement": "SPD (pancreas)", "setting": "[5]", "result": "1344 pmoles/mg/wet weight and 1052 pmoles/mg/wet weight and 1928 pmoles/mg/wet weight and 2533 pmoles/mg/wet weight and 369 pmoles/mg/wet weight"},
      {"measurement": "SPM (pancreas)", "setting": "[5]", "result": "238 pmoles/mg/wet weight and 254 pmoles/mg/wet weight and 339 pmoles/mg/wet weight and 557 pmoles/mg/wet weight and 112 pmoles/mg/wet weight"},
      {"measurement": "SSAT (pancreas)", "setting": "[5]", "result": "10 pmoles/10 min/mg wet weight and 28 pmoles/10 min/mg wet weight and 17 pmoles/10 min/mg wet weight and 8 pmoles/10 min/mg wet weight and 75 pmoles/10 min/mg wet weight"},
      {"measurement": "MeSpd (pancreas)", "setting": "[6]", "result": "452 pmoles/mg/wet weight and 1053 pmoles/mg/wet weight and 560 pmoles/mg/wet weight and 629 pmoles/mg/wet weight"},
      {"measurement": "N^1AcSpd (pancreas)", "setting": "[6]", "result": "70 pmoles/mg/wet weight and 51 pmoles/mg/wet weight and 49 pmoles/mg/wet weight and 42 pmoles/mg/wet weight"},
      {"measurement": "PU (pancreas)", "setting": "[6]", "result": "889 pmoles/mg/wet weight and 7496 pmoles/mg/wet weight and 1078 pmoles/mg/wet weight and 1345 pmoles/mg/wet weight"},
      {"measurement": "SPD (pancreas)", "setting": "[6]", "result": "79 pmoles/mg/wet weight and 1571 pmoles/mg/wet weight and 165 pmoles/mg/wet weight and 456 pmoles/mg/wet weight"},
      {"measurement": "SPM (pancreas)", "setting": "[6]", "result": "35 pmoles/mg/wet weight and 422 pmoles/mg/wet weight and 61 pmoles/mg/wet weight and 141 pmoles/mg/wet weight"},
      {"measurement": "SSAT (pancreas)", "setting": "[6]", "result": "548 pmoles/10 min/mg wet weight and 42 pmoles/10 min/mg wet weight and 4391 pmoles/10 min/mg wet weight and 2001 pmoles/10 min/mg wet weight"}
    ]}
  ]
}
